# Measured values published in patent US10414754B2, “Indolizine compounds, a process for their preparation and pharmaceutical compositions containing them” (LES LABORATOIRES SERVIER, priority 2013, dated 2019).
# Where a name gives a salt, the structure may show the parent alone.
# Experiments:
# Bcl-2 protein = molecular target: T1, Bcl-2 protein (histag-Bcl-2, UniProtKB P10415) (Homo sapiens, UniProt P10415); assay: Inhibition of Bcl-2 by the fluorescence polarisation technique; assay type: binding; conditions: fluorescence polarisation, 2 hours incubation; read-out: IC50 (nM) Bcl-2 FP
# T1 construct: His tag
# T1 sequence (P10415 whole entry): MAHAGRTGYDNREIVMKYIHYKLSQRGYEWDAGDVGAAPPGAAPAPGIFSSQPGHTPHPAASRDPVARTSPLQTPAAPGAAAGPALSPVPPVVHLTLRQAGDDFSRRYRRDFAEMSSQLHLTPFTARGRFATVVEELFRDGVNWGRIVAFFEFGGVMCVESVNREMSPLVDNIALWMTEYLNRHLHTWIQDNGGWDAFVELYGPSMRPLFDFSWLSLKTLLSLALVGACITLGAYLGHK
# Protocol: The fluorescence polarisation tests were carried out on microplates (384 wells). The Bcl-2 protein, labelled (histag-Bcl-2 such that Bcl-2 corresponds to the UniProtKB® primary accession number: P10415), at a final concentration of 2.50×10^−8 M, is mixed with a fluorescent peptide (Fluorescein-[…]), at a final concentration of 1.00×10^−8M in a buffer solution (Hepes 10 mM, NaCl 150 mM, Tween20 0.05%, pH 7.4), in the presence or absence of increasing concentrations of test compounds. After incubation for 2 hours, the fluorescence polarisation is measured.
# [1] = test system: RS4;11 leukaemia tumour line; assay: In vitro cytotoxicity (MTT) on RS4;11; assay type: cell-based; conditions: Homo sapiens; RS4;11 cells, 48 hours exposure
# Protocol: The cytotoxicity studies were carried out on the RS4;11 leukaemia tumour line.
# The cells are distributed onto microplates and exposed to the test compounds for 48 hours.
# The cell viability is then quantified by a colorimetric assay, the Microculture Tetrazolium Assay (Cancer Res., 1987, 47, 939-942).
SMILES,IC50 (Bcl-2 protein) [nM],IC50 [1] [nM]
"C[C@@H]1Cc2ccccc2CN1C(=O)c1cc2c(cc1-c1cc(C(=O)N(c3ccc(O)cc3)c3ccc(CCN4CCC(F)(F)C4)cc3)c3ccccn13)OCO2 [Example 36, N-{4-[2-(3,3-Difluoropyrrolidin-1-yl)ethyl]phenyl}-N-(4-hydroxyphenyl)-3-(6-{[(3R)-3-methyl-3,4-dihydroisoquinolin-2(1,H)-yl]carbonyl}-1,3-benzodioxol-5-yl)indolizine-1-carboxamide hydrochloride]",12.6,49.7
"NCC[C@@H]1Cc2ccccc2CN1C(=O)c1cc2c(cc1-c1cc(C(=O)N(c3ccccc3)c3ccc(O)cc3)c3n1CCCC3)OCO2 [Example 37, 3-(6-{[(3S)-3-(2-Aminoethyl)-3,4-dihydroisoquinolin-2(1H)-yl]carbonyl}-1,3-benzodioxol-5-yl)-N-(4-hydroxyphenyl)-N-phenyl-5,6,7,8-tetrahydroindolizine-1-carboxamide hydrochloride]",2.9,24.7
"O=C(c1cc(-c2cc3c(cc2C(=O)N2Cc4ccccc4C[C@H]2CCCN2CCOCC2)OCO3)n2c1CCCC2)N(c1ccccc1)c1ccc(O)cc1 [Example 38, N-(4-Hydroxyphenyl)-3-(6-{[(3R)-3-[3-(morpholin-4-yl)propyl]-3,4-dihydroisoquinolin-2(1H)-yl]carbonyl}-1,3-benzodioxol-5-yl)-N-phenyl-5,6,7,8-tetrahydroindolizine-1-carboxamide hydrochloride]",4.6,9.52
"Cc1cc(N(C(=O)c2cc(-c3cc4c(cc3C(=O)N3Cc5ccccc5C[C@H]3C)OCO4)n3ccccc23)c2ccc(O)cc2)cc(C)n1 [Example 39, N-(2,6-Dimethylpyridin-4-yl)-N-(4-hydroxyphenyl)-3-(6-{[(3R)-3-methyl-3,4-dihydroisoquinolin-2(1H)-yl]carbonyl}-1,3-benzodioxol-5-yl)indolizine-1-carboxamide hydrochloride]",4.6,26.3
"C[C@@H]1Cc2ccccc2CN1C(=O)c1cc2c(cc1-c1cc(C(=O)N(c3ccccc3)c3ccc(O)cc3)c3n1CCCC3)OCO2 [Example 40, N-(4-Hydroxyphenyl)-3-(6-{[(3R)-3-methyl-3,4-dihydroisoquinolin-2(1H)-yl]carbonyl}-1,3-benzodioxol-5-yl)-N-phenyl-5,6,7,8-tetrahydroindolizine-1-carboxamide]",6,49
"CC[C@@H]1Cc2ccccc2CN1C(=O)c1ccc(Cl)cc1-c1cc(C(=O)N(c2ccc(O)cc2)c2cnc3c(ccn3C)c2)c2ccccn12 [Example 50, 3-(5-Chloro-2-{[(3R)-3-ethyl-3,4-dihydroisoquinolin-2(1H)-yl]-carbonyl}phenyl)-N-(4-hydroxyphenyl)-N-(1-methyl-1H-pyrrolo[2,3-b]pyridin-5-yl)indolizine-1-carboxamide]",2.2,28.2
"C[C@@H]1Cc2ccccc2CN1C(=O)c1ccccc1-c1cc(C(=O)N(c2ccc(O)cc2)c2cnc3c(ccn3C)c2)c2ccccn12 [Example 52, N-(4-Hydroxyphenyl)-3-(2-{[(3R)-3-methyl-3,4-dihydroisoquinolin-2(1H)-yl]carbonyl}phenyl)-N-(1-methyl-1H-pyrrolo[2,3-b]pyridin-5-yl)indolizine-1-carboxamide]",7.9,20.9
"Cc1cn2ccc(N(C(=O)c3cc(-c4cc5c(cc4C(=O)N4Cc6ccccc6C[C@H]4C)OCO5)n4ccccc34)c3ccc(O)cc3)cc2n1 [Example 53, N-(4-Hydroxyphenyl)-3-(6-{[(3R)-3-methyl-3,4-dihydroisoquinolin-2(1H)-yl]carbonyl}-1,3-benzodioxol-5-yl)-N-(2-methylimidazo[1,2-a]pyridin-7-yl)indolizine-1-carboxamide hydrochloride]",5.4,70.9
"Cc1ccc(N(C(=O)c2cc(-c3cc4c(cc3C(=O)N3Cc5ccccc5C[C@H]3C)OCO4)n3ccccc23)c2ccc(O)cc2)cn1 [Example 54, N-(4-Hydroxyphenyl)-3-(6-{[(3R)-3-methyl-3,4-dihydroisoquinolin-2(1H)-yl]carbonyl}-1,3-benzodioxol-5-yl)-N-(6-methylpyridin-3-yl)indolizine-1-carboxamide hydrochloride]",6.6,45
"C[C@@H]1Cc2ccccc2CN1C(=O)c1cc2c(cc1-c1cc(C(=O)N(c3ccc(O)cc3)c3cncc(F)c3)c3ccccn13)OCO2 [Example 55, N-(5-Fluoropyridin-3-yl)-N-(4-hydroxyphenyl)-3-(6-{[(3R)-3-methyl-3,4-dihydroisoquinolin-2(1H)-yl]carbonyl}-1,3-benzodioxol-5-yl)indolizine-1-carboxamide]",5.5,22.8

# Further lines, with some results ahead:
IC50 (Bcl-2 protein) [nM],SMILES,IC50 [1] [nM]
41.5,"O=C(c1cc(-c2cc3c(cc2C(=O)N2Cc4ccccc4C[C@H]2CCN2CCCC(F)(F)C2)OCO3)n2c1CCCC2)N(c1ccccc1)c1ccc(O)cc1 [Example 41, 3-(6-{[(3S)-3-[2-(3,3-Difluoropiperidin-1-yl)ethyl]-3,4-dihydroiso-quinolin-2(1H)-yl]carbonyl}-1,3-benzodioxol-5-yl)-N-(4-hydroxyphenyl)-N-phenyl-5,6,7,8-tetrahydroindolizine-1-carboxamide hydrochloride]",294
5.1,"C[C@@H]1Cc2ccccc2CN1C(=O)c1cc2c(cc1-c1cc(C(=O)N(c3ccncc3)c3ccc(O)cc3)c3n1CCCC3)OCO2 [Example 42, N-(4-Hydroxyphenyl)-3-(6-{[(3R)-3-methyl-3,4-dihydroisoquinolin-2(1H)-yl]carbonyl}-1,3-benzodioxol-5-yl)-N-(pyridin-4-yl)-5,6,7,8-tetrahydro-indolizine-1-carboxamide hydrochloride]",57.6
4.8,"O=C(c1cc(-c2cc3c(cc2C(=O)N2Cc4ccccc4C[C@H]2CCNCC(F)F)OCO3)n2c1CCCC2)N(c1ccccc1)c1ccc(O)cc1 [Example 43, 3-(6-{[(3S)-3-{2-[(2,2-Difluoroethyl)amino]ethyl}-3,4-dihydroisoquinolin-2(1H)-yl]carbonyl}-1,3-benzodioxol-5-yl)-N-(4-hydroxyphenyl)-N-phenyl-5,6,7,8-tetrahydroindolizine-1-carboxamide]",26
2.9,"COC1CN(CC[C@@H]2Cc3ccccc3CN2C(=O)c2cc3c(cc2-c2cc(C(=O)N(c4ccccc4)c4ccc(O)cc4)c4n2CCCC4)OCO3)C1 [Example 44, N-(4-Hydroxyphenyl)-3-(6-{[(3S)-3-[2-(3-methoxyazetidin-1-yl)ethyl]-3,4-dihydroisoquinolin-2(1H)-yl]carbonyl}-1,3-benzodioxol-5-yl)-N-phenyl-5,6,7,8-tetrahydroindolizine-1-carboxamide]",8.56
3.8,"C[C@@H]1Cc2ccccc2CN1C(=O)c1cc2c(cc1-c1cc(C(=O)N(c3ccc(O)cc3)c3cnn(CCN4CCOCC4)c3)c3ccccn13)OCO2 [Example 45, N-(4-Hydroxyphenyl)-3-(6-{[(3R)-3-methyl-3,4-dihydroisoquinolin-2(1,H)-yl]carbonyl}-1,3-benzodioxol-5-yl)-N-{1-[2-(morpholin-4-yl)ethyl]-1H-pyrazol-4-yl}indolizine-1-carboxamide hydrochloride]",63.8
4.1,"C[C@@H]1Cc2ccccc2CN1C(=O)c1cc2c(cc1-c1cc(C(=O)N(c3ccc(O)cc3)c3ccncc3F)c3ccccn13)OCO2 [Example 46, N-(3-Fluoropyridin-4-yl)-N-(4-hydroxyphenyl)-3-(6-{[(3R)-3-methyl-3,4-dihydroisoquinolin-2(1H)-yl]carbonyl}-1,3-benzodioxol-5-yl)indolizine-1-carboxamide hydrochloride]",27.9
4.3,"C[C@@H]1Cc2ccccc2CN1C(=O)c1ccc(Cl)cc1-c1cc(C(=O)N(c2ccc(O)cc2)c2cnn(C)c2)c2n1CCCC2 [Example 47, 3-(5-Chloro-2-{[(3R)-3-methyl-3,4-dihydroisoquinolin-2(1H)-yl]-carbonyl}phenyl)-N-(4-hydroxyphenyl)-N-(1-methyl-1H-pyrazol-4-yl)-5,6,7,8-tetrahydroindolizine-1-carboxamide]",90.1
3.6,"C[C@@H]1Cc2ccccc2CN1C(=O)c1cc2c(cc1-c1cc(C(=O)N(c3ccc(O)cc3)c3cnn(C)c3)c3n1CCCC3)OCCO2 [Example 48, N-(4-Hydroxyphenyl)-3-(7-{[(3R)-3-methyl-3,4-dihydroisoquinolin-2(1H)-yl]carbonyl}-2,3-dihydro-1,4-benzodioxin-6-yl)-N-(1-methyl-1H-pyrazol-4-yl)-5,6,7,8-tetrahydroindolizine-1-carboxamide]",24.7
3.7,"C[C@@H]1Cc2ccccc2CN1C(=O)c1ccc(Cl)cc1-c1cc(C(=O)N(c2ccncc2)c2ccc(O)cc2)c2ccccn12 [Example 49, 3-(5-Chloro-2-{[(3R)-3-methyl-3,4-dihydroisoquinolin-2(1H)-yl]-carbonyl}phenyl)-N-(4-hydroxyphenyl)-N-(pyridin-4-yl)indolizine-1-carboxamide hydrochloride]",84.7
4.8,"C[C@@H]1Cc2ccccc2CN1C(=O)c1cc2c(cc1-c1cc(C(=O)N(c3ccc(O)cc3)c3ccn4ccnc4c3)c3ccccn13)OCO2 [Example 51, N-(4-Hydroxyphenyl)-N-(imidazo[1,2-a]pyridin-7-yl)-3-(6-{[(3R)-3-methyl-3,4-dihydroisoquinolin-2(1H)-yl]carbonyl}-1,3-benzodioxol-5-yl)indolizine-1-carboxamide hydrochloride]",68.8
